These results are taken from publication PMC7934687 (Vaccine, 2021).

Like-named read-outs stand apart in the source and are kept apart here.

Type in all cases: binding
The target in one test is HLA-A*02:01 (Homo sapiens, UniProt P04439, D140Y/D185E/D98H/E176V/E277Q/G131W/G231S/I119V/I121R/I166T/I218V/L300P/L318F/N151K/N90K/P208A/P217A/Q86G/Q94H/R138H/R169H/T345S).
In a further test the target is HLA-DRB1*01:01 (Homo sapiens, UniProt P01903+P01911, A100R/D57E/F55L/F60I/F76Y/I96L/L162R/M171V/P40L/Q125E/R42F/V115G/Y59C). As to conditions: reference peptide, short 15 amino acid form.
In a further test the target is HLA-DRB1*15:01 (Homo sapiens, UniProt P01903+P01911). As to conditions: reference peptide, short 15 amino acid form.

ISDEFSSNV: at HLA-A*02:01 ([…], exiting peptide removed), the “Practical Exchange rate” value is listed as 93.5%.

As to PVSKMRMATPLLMQA [CLIP], on HLA-DRB1*01:01, the “interaction with recombinant HLA-DRB1*01:01” value is listed as “interacts strongly”. Besides, the “interaction with recombinant HLA-DRB1*15:01” value at HLA-DRB1*15:01 was “interacts strongly”.

Turning to SVLLFLAFV, the “Practical Exchange rate” value on HLA-A*02:01 came to 57.5%.

For the sequence YLYALVYFL, the “Practical Exchange rate” value on HLA-A*02:01 ([…], exiting peptide removed) stood at 85%.
